pIC50, pKi: −log10 of the molar value. Like-named read-outs stand apart in the source and are kept apart here. *1 amine or outer side, *2 acyl side, *3 side chain or, on linkers, in order; H or OH if unused. Where a SMILES comes first, the peptide text is derived from it. [ ]: non-standard residue; d: D form. The star is where a group is joined. Oic = O=C(O)[C@@H]1C[C@@H]2CCCC[C@@H]2N1; X2 = CCC[C@H](N[*:1])C(=O)C(=O)[*:2]; Pyrazinecarbonyl = O=C(c1cnccn1)*; Chg = N[C@H](C(=O)O)C1CCCCC1; Tle = CC(C)(C)[C@H](N)C(=O)O
Experiments:
[1] = test system: Cells containing hepatitis C virus (HCV) replicon; test: HCV replicon cell assay (Taqman RT-PCR of HCV RNA); type: cell-based; conditions: 50% inhibition of HCV RNA level, 48-hour incubation, HCV replicon cells, read-out: IC50
Protocol: HCV Replicon Cell Assay Protocol
Cells containing hepatitis C virus (HCV) replicon were maintained in DMEM containing 10% fetal bovine serum (FBS), 0.25 mg per ml of G418, with appropriate supplements (media A).
On day 1, replicon cell monolayer was treated with a trypsin:EDTA mixture, removed, and then media A was diluted into a final concentration of 100,000 cells per ml wit. 10,000 cells in 100 ul were plated into each well of a 96-well tissue culture plate, and cultured overnight in a tissue culture incubator at 37° C.
On day 2, compounds (in 100% DMSO) were serially diluted into DMEM containing 2% FBS, 0.5% DMSO, with appropriate supplements (media B). The final concentration of DMSO was maintained at 0.5% throughout the dilution series.
Media on the replicon cell monolayer was removed, and then media B containing various concentrations of compounds was added. Media B without any compound was added to other wells as no compound controls.
Cells were incubated with compound or 0.5% DMSO in media B for 48 hours in a tissue culture incubator at 37° C. At the end of the 48-hour incubation, the media was removed, and the replicon cell monolayer was washed once with PBS and stored at −80° C. prior to RNA extraction.
Culture plates with treated replicon cell monolayers were thawed, and a fixed amount of another RNA virus, such as Bovine Viral Diarrhea Virus (BVDV) was added to cells in each well. RNA extraction reagents (such as reagents from RNeasy kits) were added to the cells immediately to avoid degradation of RNA. Total RNA was extracted according the instruction of manufacturer with modification to improve extraction efficiency and consistency. Finally, total cellular RNA, including HCV replicon RNA, was eluted and stored at −80° C. until further processing.
A Taqman real-time RT-PCR quantification assay was set up with two sets of specific primers and probe. One was for HCV and the other was for BVDV. Total RNA extractants from treated HCV replicon cells was added to the PCR reactions for quantification of both HCV and BVDV RNA in the same PCR well. Experimental failure was flagged and rejected based on the level of BVDV RNA in each well. The level of HCV RNA in each well was calculated according to a standard curve run in the same PCR plate. The percentage of inhibition or decrease of HCV RNA level due to compound treatment was calculated using the DMSO or no compound control as 0% of inhibition. The IC50 (concentration at which 50% inhibition of HCV RNA level is observed) was calculated from the titration curve of any given compound.

[2] = biological target: HCV NS3-NS4A protease (tNS3 with KK4A) (Hepatitis C virus genotype 1a, UniProt P27958); test: HCV Ki assay (HPLC microbore separation of 5AB substrate and products); type: biochemical
HCV NS3-NS4A protease (tNS3 with KK4A), sequence (P27958 1027-1208): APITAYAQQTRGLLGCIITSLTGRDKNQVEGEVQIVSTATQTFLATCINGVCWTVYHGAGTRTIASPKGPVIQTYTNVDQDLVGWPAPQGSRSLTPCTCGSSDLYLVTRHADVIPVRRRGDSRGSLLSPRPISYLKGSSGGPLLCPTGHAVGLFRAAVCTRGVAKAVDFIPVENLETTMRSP
Protocol: HPLC Microbore Method for Separation of 5AB Substrate and Products
• Substrate: • NH2-Glu-Asp-Val-Val-(alpha)Abu-Cys-Ser-Met-Ser-Tyr-COOH
A stock solution of 20 mM 5AB (or concentration of your choice) was made in DMSO w/ 0.2M DTT. This was stored in aliquots at −20 C.
Buffer: 50 mM HEPES, pH 7.8; 20% glycerol; 100 mM NaCl
Total assay volume was 100 μL
The buffer, KK4A, DTT, and tNS3 were combined; distributed 78 μL each into wells of 96 well plate. This was incubated at 30 C for ˜5–10 min.
2.5 μL of appropriate concentration of test compound was dissolved in DMSO (DMSO only for control) and added to each well. This was incubated at room temperature for 15 min.
Initiated reaction by addition of 20 μL of 250 μM 5AB substrate (25 μM concentration is equivalent or slightly lower than the Km for 5AB).
Incubated for 20 min at 30 C.
Terminated reaction by addition of 25 μL of 10% TFA
Transferred 120 μL aliquots to HPLC vials
Separated SMSY product from substrate and KK4A by the following method:
Microbore Separation Method:
Instrumentation: Agilent 1100
• Degasser G1322A • Binary pump G1312A • Autosampler G1313A • Column thermostated chamber G1316A • Diode array detector G1315A Column:
Phenomenex Jupiter; 5 micron C18; 300 angstroms; 150×2 mm; P/O 00F-4053-B0 • Column thermostat: 40 C • Injection volume: 100 μL • Solvent A=HPLC grade water+0.1% TFA • Solvent B=HPLC grade acetonitrile+0.1% TFA
• Stop time: 17 min • Post-run time: 10 min.

Row | pKi ([2]; 25 nM tNS3, 25 μM KK4A, 25 μM 5AB substrate, 20 min at 30 C, read-out: Ki) | Structure (SMILES) | pIC50 [1] | pKi [2]
1 |  | CCC[C@H](NC(=O)[C@@H]1C[C@@H]2CCCC[C@@H]2N1C(=O)[C@@H](NC(=O)[C@@H](NC(=O)c1ccn[nH]1)C1CCCCC1)C(C)(C)C)C(=O)C(=O)NC1CC1 [Compound 15a] | > 6.30 | > 6.30
2 |  | CCC[C@H](NC(=O)[C@@H]1C[C@@H]2CCCC[C@@H]2N1C(=O)[C@@H](NC(=O)[C@@H](NC(=O)c1cc(C(C)(C)C)n[nH]1)C1CCCCC1)C(C)(C)C)C(=O)C(=O)NC1CC1 [Compound 16a] | 5.30 to 6.00 | > 6.30
3 |  | CCC[C@H](NC(=O)[C@@H]1C[C@@H]2CCCC[C@@H]2N1C(=O)[C@@H](NC(=O)[C@@H](NC(=O)c1ccnn1C)C1CCCCC1)C(C)(C)C)C(=O)C(=O)NC1CC1 [Compound 17a] |  | 5.30 to 6.00
4 |  | CCC[C@H](NC(=O)[C@@H]1C[C@@H]2CCCC[C@@H]2N1C(=O)[C@@H](NC(=O)[C@@H](NC(=O)c1cc2cc(F)ccc2[nH]1)C1CCCCC1)C(C)(C)C)C(=O)C(=O)NC1CC1 [Compound 18a] | > 6.30 | > 6.30
5 |  | CCC[C@H](NC(=O)[C@@H]1C[C@@H]2CCCC[C@@H]2N1C(=O)[C@@H](NC(=O)[C@@H](NC(=O)[C@@](C)(O)c1ccccc1)C1CCCCC1)C(C)(C)C)C(=O)C(=O)NC1CC1 [Compound 19a] | 6.00 to 6.30 | > 6.30
6 |  | CCC[C@H](NC(=O)[C@@H]1C[C@@H]2CCCC[C@@H]2N1C(=O)[C@@H](NC(=O)[C@@H](NC(=O)c1nccnc1C(N)=O)C1CCCCC1)C(C)(C)C)C(=O)C(=O)NC1CC1 [Compound 28a] |  | > 6.30
7 |  | CCC[C@H](NC(=O)[C@@H]1C[C@@H]2CCCC[C@@H]2N1C(=O)[C@@H](NC(=O)[C@@H](NC(=O)c1[nH]ncc1Cl)C1CCCCC1)C(C)(C)C)C(=O)C(=O)NC1CC1 [Compound 38a] |  | 6.00 to 6.30
8 |  | CCC[C@H](NC(=O)[C@@H]1C[C@@H]2CCCC[C@@H]2N1C(=O)[C@@H](NC(=O)[C@@H](NC(=O)c1cnccn1)C1CCCCC1)C(C)(C)C)C(=O)C(=O)N(C)C [Compound 50a] |  | 5.30 to 6.00
9 |  | CCC[C@H](NC(=O)[C@@H]1C[C@@H]2CCCC[C@@H]2N1C(=O)[C@@H](NC(=O)[C@@H](NC(=O)c1cnccn1)C1CCCCC1)C(C)(C)C)C(=O)C(=O)NCC(=O)N(C)C [Compound 54a] (Pyrazinecarbonyl-[Chg][Tle][Oic][X2]G-NMe2) |  | 5.30 to 6.00
10 | > 6.30 | CCCC(NC(=O)[C@@H]1C[C@@H]2CCCC[C@@H]2N1C(=O)[C@@H](NC(=O)[C@@H](NC(=O)c1cnccn1)C1CCCCC1)C(C)(C)C)B1O[C@@H]2C[C@@H]3C[C@@H](C3(C)C)[C@]2(C)O1 (stereo partly drawn) [Compound 56a] |  | 
11 |  | CCC[C@H](NC(=O)[C@@H]1C[C@@H]2CCCC[C@@H]2N1C(=O)[C@@H](NC(=O)[C@H](C1CCCCC1)N1C(=O)c2ccccc2C1=O)C(C)(C)C)C(=O)C(=O)NC1CC1 [Compound 57a] |  | > 6.30
12 |  | CCC[C@H](NC(=O)[C@@H]1C[C@@H]2CCCC[C@@H]2N1C(=O)[C@@H](NC(=O)[C@@H](NC(=O)c1[nH]c(C)c(C)c1C(C)=O)C(C)C)C(C)(C)C)C(=O)C(=O)NC1CC1 [Compound 58a] |  | > 6.30
13 |  | CCC[C@H](NC(=O)[C@@H]1C[C@@H]2CCCC[C@@H]2N1C(=O)[C@@H](NC(=O)[C@@H](NC(=O)c1[nH]c(C)c(C)c1C(C)=O)C(C)CC)C(C)(C)C)C(=O)C(=O)NC1CC1 (stereo partly drawn) [Compound 59a] |  | > 6.30
14 |  | CCC[C@H](NC(=O)[C@@H]1C[C@@H]2CCCC[C@@H]2N1C(=O)[C@@H](NC(=O)[C@@H](NC(=O)c1[nH]c(C)c(C)c1C(C)=O)C1CCCCC1)C(C)(C)C)C(=O)C(=O)C(C)C [Compound 62a] |  | 6.00 to 6.30
